Assay results as given in US8263598B2, “Substituted sulfonamide compounds” (Gruenenthal GmbH, priority 2008, dated 2012).

Experiments:
[1] = molecular target: T1, human B1R receptor (hB1R) (Homo sapiens, UniProt P46663); test: FLIPR Ca2+ assay on human bradykinin 1 receptor (CHO K1 hB1R cells); format: cell-based; conditions: test substance 10 μM; CHO K1 cells with human B1R gene; agonist Lys-Des-Arg9-bradykinin 0.5 nM; compared to maximum achievable inhibition
T1 construct: host or cells: CHO K1 cells
T1 sequence (P46663 1-353): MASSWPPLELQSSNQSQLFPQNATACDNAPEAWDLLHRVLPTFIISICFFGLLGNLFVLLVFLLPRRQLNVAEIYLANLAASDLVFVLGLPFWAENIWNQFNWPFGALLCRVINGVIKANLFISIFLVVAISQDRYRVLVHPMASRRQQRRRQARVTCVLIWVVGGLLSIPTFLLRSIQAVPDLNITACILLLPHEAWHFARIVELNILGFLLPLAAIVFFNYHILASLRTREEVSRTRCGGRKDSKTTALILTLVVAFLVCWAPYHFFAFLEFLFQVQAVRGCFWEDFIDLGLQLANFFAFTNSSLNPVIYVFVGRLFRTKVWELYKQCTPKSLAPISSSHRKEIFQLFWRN
Method: (§1) The agonistic or antagonistic action of compounds can be quantified on the bradykinin 1 receptor (B1R) of humans and rats with ectopically expressing cell lines (CHO K1 cells) and with the aid of a Ca^2+-sensitive dye (Fluo-4) in the fluorescent imaging plate reader (FLIPR). The figure in percent activation refers to the Ca^2+ signal after addition of Lys-Des-Arg^9-bradykinin (0.5 nM) and Des-Arg^9-bradykinin (100 nM). Antagonists result in a suppression of the Ca^2+ inflow after the addition of the agonist. Percent inhibition values are given in comparison to the maximum achievable inhibition.
(§2) The agonistic or antagonistic action of substances can be determined on the bradykinin 1 receptor (B1R) of humans and rats by means of the following assay.
(§3) According to this assay the Ca^2+ inflow through the channel is quantified by means of a Ca^2+-sensitive dye (Fluo-4 type, Molecular Probes Europe BV, Leiden, Netherlands), in a Fluorescent Imaging Plate Reader (FLIPR, Molecular Devices, Sunnyvale, USA). Method:
(§4) Chinese hamster ovary cells (CHO K1 cells) are used, which are stably transfected with the human B1R gene (hB1R cells, Euroscreen s.a., Gosselies, Belgium), or with the B1R gene of rats (rB1R cells, Axxam, Milan, Italy). For functional investigations these cells are plated out on black 96-well plates with a clear floor (BD Biosciences, Heidelberg, Germany) in a density of 20,000/25,000 cells/well. The cells are incubated overnight with 10 vol. % FBS (foetal bovine serum, Gibco Invitrogen GmbH, Karlsruhe, Germany) at 37° C. and 5% CO2 in a culture medium (hB1R cells: Nutrient Mixture Ham's F12, Gibco Invitrogen GmbH, Karlsruhe, Germany; rB1R cells: D-MEM/F12, Gibco Invitrogen GmbH, Karlsruhe, Germany). The following day the cells are charged for 60 minutes at 37° C. with 2.13 μM Fluo-4 (Molecular Probes Europe BV, Leiden, Netherlands) in HBSS buffer (Hank's buffered saline solution, Gibco Invitrogen GmbH, Karlsruhe, Germany) together with […] (Sigma-Aldrich, Taufkirchen, Germany) and 10 mM HEPES (Sigma-Aldrich, Taufkirchen, Germany).
(§5) The plates are then washed twice with HBSS buffer and HBSS buffer is added which additionally contains 0.1% BSA (bovine serum albumin; Sigma-Aldrich, Taufkirchen, Germany), 5.6 mM glucose and 0.05% gelatin (Merck KGaA, Darmstadt, Germany). After further incubation for 20 minutes at room temperature the plates are used for the Ca^2+ measurement in the FLIPR. The Ca^2+-dependent fluorescence is measured both before and after the addition of substances (λex=488 nm, λem=540 nm). The quantification is carried out by measuring the highest fluorescence intensity (FC, fluorescence counts) over time.
(§6) The FLIPR protocol consists of two substance additions. First of all test substances (10 μM) are pipetted onto the cells and the Ca^2+ inflow is compared with the control (hB1R: Lys-Des-Arg9-bradykinin 0.5 nM; rB1R: Des-Arg9-bradykinin 100 nM). This gives the result in percent activation referred to the Ca^2+ signal after addition of Lys-Des-Arg9-bradykinin (0.5 nM), bzw. Des-Arg9-bradykinin (100 nM). After 10 minutes' incubation 0.5 nM Lys-Des-Arg9-bradykinin (hB1R) and 100 nM Des-Arg^9-bradykinin (rB1R) are applied and the inflow of Ca^2+ is likewise determined. Antagonists lead to a suppression of the Ca^2+ inflow. The percent inhibition compared to the maximum achievable inhibition is calculated. The compounds show a good activity on both human and rat receptors.
(§7) The agonistic and antagonistic action of the compounds according to the invention on the bradykinin 1 receptor (B1R) of humans and rats were determined as described above. Antagonists lead to a suppression of the Ca^2+ inflow. The % inhibition compared to the maximum achievable inhibition was calculated.

[2] = molecular target: T2, B1R receptor of rats (rB1R) (Rattus norvegicus, UniProt P97583); test: FLIPR Ca2+ assay on rat bradykinin 1 receptor (CHO K1 rB1R cells); format: cell-based; conditions: test substance 10 μM; CHO K1 cells with B1R gene of rats; agonist Des-Arg9-bradykinin 100 nM; compared to maximum achievable inhibition
T2 construct: host or cells: CHO K1 cells
T2 sequence (P97583 1-337): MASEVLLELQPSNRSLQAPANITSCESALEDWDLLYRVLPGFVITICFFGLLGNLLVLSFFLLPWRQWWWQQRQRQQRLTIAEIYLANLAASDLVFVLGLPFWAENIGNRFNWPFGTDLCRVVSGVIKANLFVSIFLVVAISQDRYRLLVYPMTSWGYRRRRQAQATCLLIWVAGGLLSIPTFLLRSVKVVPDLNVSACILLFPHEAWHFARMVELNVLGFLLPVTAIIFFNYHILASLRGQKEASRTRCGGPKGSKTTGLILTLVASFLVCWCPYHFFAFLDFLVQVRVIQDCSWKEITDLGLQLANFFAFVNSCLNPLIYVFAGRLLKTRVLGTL
Method: as §1, §2, §3, §4, §5, §6, §7

inhibition at 10 µM [1] | inhibition at 10 µM [2] | SMILES
55% | 98% | COc1cc(C)c(S(=O)(=O)N(CCOCC(=O)N2CCn3cccc3C2c2cccs2)CC(C)C)c(C)c1C (centres unmarked) [Example 25, N-isobutyl-4-methoxy-2,3,6-trimethyl-N-(2-(2-oxo-2-(1-(thiophen-2-yl)-3,4-dihydropyrrolo[1,2-a]pyrazin-2(1H)-yl)ethoxy)ethyl)benzenesulfonamide]
96% | 96% | COc1cc(C)c(S(=O)(=O)N(CCOCC(=O)N2CCn3c(CN(C)C)ccc3C2Cc2ccccc2)Cc2ccccc2)c(C)c1C (centres unmarked) [Example 118, N-benzyl-N-(2-(2-(1-benzyl-6-((dimethylamino)methyl)-3,4-dihydropyrrolo[1,2-a]pyrazin-2(1H)-yl)-2-oxoethoxy)ethyl)-4-methoxy-2,3,6-trimethylbenzene-sulfonamide]
58% | 85% | COc1cc(C)c(S(=O)(=O)N(CCOCC(=O)N2CCn3cccc3C2c2ccc(C(C)(C)C)cc2)Cc2ccccc2)c(C)c1 (centres unmarked) [Example 51, N-benzyl-N-(2-(2-(1-(4-tert-butylphenyl)-3,4-dihydropyrrolo[1,2-a]pyrazin-2(1H)-yl)-2-oxoethoxy)ethyl)-4-methoxy-2,6-dimethylbenzenesulfonamide]
95% | 99% | COc1cc(C)c(S(=O)(=O)N(C)CCOCC(=O)N2CCn3cccc3C2c2cccc(F)c2)c(C)c1 (centres unmarked) [Example 59, N-(2-(2-(1-(3-fluorophenyl)-3,4-dihydropyrrolo[1,2-a]pyrazin-2(1H)-yl)-2-oxoethoxy)ethyl)-4-methoxy-N,2,6-trimethylbenzenesulfonamide]
100% | 98% | COc1cc(C)c(S(=O)(=O)N(C)CCOCC(=O)N2CCn3cccc3C2C(C)(C)C)c(C)c1 (centres unmarked) [Example 52, N-(2-(2-(1-tert-butyl-3,4-dihydropyrrolo[1,2-a]pyrazin-2(1H)-yl)-2-oxoethoxy)ethyl)-4-methoxy-N,2,6-trimethylbenzenesulfonamide]
99% | 102% | Cc1cc(C)c(S(=O)(=O)N(C)CCOCC(=O)N2CCn3cccc3C2c2cccs2)c(C)c1 (centres unmarked) [Example 74, N,2,4,6-tetramethyl-N-(2-(2-oxo-2-(1-(thiophen-2-yl)-3,4-dihydropyrrolo[1,2-a]pyrazin-2(1H)-yl)ethoxy)ethyl)benzenesulfonamide]
95% | 67% | COc1ccc(C2c3cccn3CCN2C(=O)COCCN(C)S(=O)(=O)c2cc(C)c(OC)c(C)c2C)cc1 (centres unmarked) [Example 31, 4-methoxy-N-(2-(2-(1-(4-methoxyphenyl)-3,4-dihydropyrrolo[1,2-a]pyrazin-2(1H)-yl)-2-oxoethoxy)ethyl)-N,2,3,5-tetramethylbenzenesulfonamide]
103% | 100% | COc1cc(C)c(S(=O)(=O)N(C)CCOCC(=O)N2CCn3c(CN(C)C)ccc3C2c2ccccc2)c(C)c1 (centres unmarked) [Example 14, N-(2-(2-(6-((dimethylamino)methyl)-1-phenyl-3,4-dihydropyrrolo[1,2-a]pyrazin-2(1H)-yl)-2-oxoethoxy)ethyl)-4-methoxy-N,2,6-trimethylbenzenesulfonamide]
103% | 101% | Cc1cc(C)c(S(=O)(=O)N(C)CCOCC(=O)N2CCn3c(CN4CCCCC4)ccc3C2c2ccccc2)c(C)c1 (centres unmarked) [Example 141, N,2,4,6-tetramethyl-N-(2-(2-oxo-2-(1-phenyl-6-(piperidin-1-ylmethyl)-3,4-dihydropyrrolo[1,2-a]pyrazin-2(1H)-yl)ethoxy)ethyl)benzenesulfonamide]
58% | 42% | COc1c(C)cc(S(=O)(=O)N(C)CCOCC(=O)N2CCn3cccc3C2c2ccc(C)c(C)c2)c(C)c1C (centres unmarked) [Example 34, N-(2-(2-(1-(3,4-dimethylphenyl)-3,4-dihydropyrrolo[1,2-a]pyrazin-2(1H)-yl)-2-oxoethoxy)ethyl)-4-methoxy-N,2,3,5-tetramethylbenzenesulfonamide]
33% | 73% | COc1cc(C)c(S(=O)(=O)N(CCOCC(=O)N2CCn3ccnc3C2)Cc2ccccc2)c(C)c1C [Example 43, N-benzyl-N-(2-(2-(5,6-dihydroimidazo[1,2-a]pyrazin-7(8H)-yl)-2-oxoethoxy)ethyl)-4-methoxy-2,3,6-trimethylbenzenesulfonamide]
102% | 98% | O=C(C[C@@H](NS(=O)(=O)c1ccc2ccccc2c1)c1ccccc1)N1CCn2cc(CN3CCCCC3)nc2C1 [Example 4, (R)-N-(3-oxo-1-phenyl-3-(2-(piperidin-1-ylmethyl)-5,6-dihydroimidazo[1,2-a]pyrazin-7(8H)-yl)propyl)naphthalene-2-sulfonamide]
82% | 88% | COc1cc(C)c(S(=O)(=O)N(CCOCC(=O)N2CCn3c(CN4CCOCC4)ccc3C2c2ccccc2)Cc2ccccc2)c(C)c1C (centres unmarked) [Example 117, N-benzyl-4-methoxy-2,3,6-trimethyl-N-(2-(2-(6-(morpholinomethyl)-1-phenyl-3,4-dihydropyrrolo[1,2-a]pyrazin-2(1H)-yl)-2-oxoethoxy)ethyl)benzene-sulfonamide]
78% | 98% | O=C(CC(NS(=O)(=O)c1ccc2ccccc2c1)c1ccccc1)N1CCn2c(Cc3ccncc3)ccc2C1 (centres unmarked) [Example 169, N-(3-Oxo-1-phenyl-3-(6-(pyridin-4-ylmethyl)-3,4-dihydropyrrolo[1,2-a]pyrazin-2(1H)-yl)propyl)naphthalene-2-sulfonamide]
100% | 98% | COc1cc(C)c(S(=O)(=O)N(C)CCOCC(=O)N2CCn3cccc3C2c2cccs2)c(C)c1 (centres unmarked) [Example 60, 4-Methoxy-N,2,6-trimethyl-N-(2-(2-oxo-2-(1-(thiophen-2-yl)-3,4-dihydropyrrolo[1,2-a]pyrazin-2(1H)-yl)ethoxy)ethyl)benzenesulfonamide]
32% | 70% | O=C(CC(NS(=O)(=O)c1ccc2ccccc2c1)c1ccccc1)N1CCn2c(ccc2-c2cccnc2)C1 (centres unmarked) [Example 167, N-(3-Oxo-1-phenyl-3-(6-(pyridin-3-yl)-3,4-dihydropyrrolo[1,2-a]pyrazin-2(1H)-yl)propyl)naphthalene-2-sulfonamide]
